“And” between values parts separate entries of the source, which are not always exact repeats. Identical values can stand only once. Like-named read-outs stand apart in the source and are kept apart here.
Columns and labels:
[1] = system: bleomycin-induced idiopathic pulmonary fibrosis (IPF); experiment: Bleomycin-induced IPF mouse model: total lung collagen content (Hydroxyproline Assay); type: in vivo, C57BL/6 male mice
Protocol: The purpose of this experiment was to investigate tegavivint nanosuspension in a mouse model of bleomycin-induced idiopathic pulmonary fibrosis (IPF). Test articles were as follows:
Murine model of pulmonary fibrosis was induced by intratracheally (IT) injected bleomycin (APP Pharmaceuticals, Schaumburg, IL). One dose of 0.025 U bleomycin dissolved in 50 microliters of Saline 0.9%, or PBS as control was administered to each animal on day 0.
Tegavivint nanosuspension was applied to Group 3 in the form of aerosols, through the method of whole body exposure. The mice were placed inside a plastic box. This box was sealed and connected by one of its sides to the outlet of the nebulizer device, and on the other side to a system of closed water. The whole procedure was carried out inside the fume hood of the animal room. In each treatment session, 5 ml of 25 mg/ml Tegavivint (125 mg) was nebulized over 15 min to each group of 4-5 mice in the chamber. […]
On Day 21 all animals were sacrificed and lungs were harvested. Total lung collagen content was evaluated using the Hydroxyproline Assay as previously described (Morales-Nebreda L, et al. AJRCMB 2015). […] The resulting pellet was resuspended in 1 ml of 0.5 M NaOH and Sirius red staining was quantified spectrophotometrically (540 nm) using a colorimetric plate reader (Bio-Rad, Hercules, CA).

[2] = Aerosol concentration of nebulized formulations in rodent nose-only exposure chamber; type: physicochemical
Text: A series of BC-2059 (tegavivint) formulations were aerosolized using vibrating mesh and compressed air nebulizers to determine the most efficient method of aerosol generation. The aerosols were characterized for aerosol concentration and particle size distribution in a rodent nose-only exposure chamber. Each formulation had different variables adjusted to assess impact on aerosol performance. These included particle size reduction of the API, excipient profile and nebulizer utilized.
Test article BC-2059 was suspended in 0.1% Tween 80 in purified water at a concentration of 15 mg/mL. The suspension was sonicated using a Covaris S220x Ultrasonicator (Covaris, Boston MA) and then mixed on a vortex for one minute. Sonication and mixing by vortex was repeated a total of 15 times.
The remaining bulk BC-2059 powder was ground in a Planetary Ball Mill (Retsch, Germany) for 10 minutes at 150 RPMs utilizing a 12 mL ball mill jar and three metal balls. The milled BC-2059 powder was suspended in 0.1% Tween 80 in purified water at a concentration of 15 mg/mL. The suspension was sonicated using the procedure outlined above.
The remaining bulk BC-2059 powder was ground in a Planetary Ball Mill (Retsch, Germany) for 60 minutes at 300 RPMs utilizing a 12 mL ball mill jar and three metal balls. The milled BC-2059 powder was suspended in 0.1% Tween 80 in purified water and 10% PEG 400 in purified water at a concentration of 15 mg/mL. The suspensions were sonicated using the procedure outlined above. An additional 15 mg/mL BC-2059 suspension using 10% ethanol in purified water was prepared. The suspension was sonicated for 10 minutes using a VWR sonicator (VWR, Radnor PA) and mixed for 4 minutes using a vortex mixer. […]
The aerosols were generated from formulations prepared with a series of surfactants with 4 separate nebulizers (Aeroneb Solo (Aerogen, Ireland), Pari LC Plus (Pari Respiratory Equipment Inc. Midlothian VA), Hospitak Up Mist, Hospitak Inc. Farmdale, NY), and Hudson Micro-Mist (Teleflex Inc. Research Triangle Park, NC) and transitioned into a 2 tier flow-past rodent exposure system.
The total concentration of aerosol in the exposure atmosphere was determined by the analysis of filter samples (GF/A 47-mm filters). Filter samples were collected at a nominal flow rate of 0.3 L/min. Filter samples collected throughout the study were analyzed gravimetrically to determine the total aerosol concentration, and submitted for HPLC analysis.
Filters with test article were extracted in 1:1 acetonitrile: methanol and analyzed by the HPLC-UV assay.

[3] = Lung concentration after nebulized whole body exposure of mice; type: in vivo, bcat-Ex3 mice; conditions: for concentration at 5 day: male, bcat-Ex3, mouse, lung, inhaled
Protocol: The purpose of this experiment was to test nebulized delivery of nanosuspensions.
Tegavivint particles suspended in Poloxamer 188/sorbitol at a concentration of 25 mg/mL were used.
These formulations were applied to the mice in the form of aerosols, through the method of whole body exposure. The mice were placed inside a plastic box. This box was sealed and connected by one of its sides to the outlet of the nebulizer device, and on the other side to a system of closed water. The whole procedure was carried out inside the fume hood of the animal room.
For the first experiment, the nebulizer kit of SATER LABS was used. This device uses the jet system. The device was primed with 5 ml of the drug, i.e. 125 mg of tegavivint (BC2059), for each group of 5 mice, and then the device was connected to the power source for nebulization. The energy was supplied by a DeVilbiss compressor model 646, which allows 5-7 pounds of pressure, and a flow of 6-8 liters per minute. For the second experiment, the device used was the Altera, ultrasonic nebulizer.
For the two experiments, 10 male bcat-Ex3 mice were used for each set. These mice were separated into 2 groups of 5 mice each. The first group received the drug daily, for 5 consecutive days. The second group received the drug only once (the fifth day). On day 5 all mice were sacrificed, lung harvested, and samples were stored at −30 degrees, in two labeled nylon bags, each containing the 5 samples from each group.

[4] = Covaris and Ball Mill (60 min), 0.1% Tween 80, 15.06 mg/mL, Hospitak
[5] = Covaris and Ball Mill (60 min), 0.1% Tween 80, 15.08 mg/mL, Hudson MicroMist
[6] = Covaris and Ball Mill (60 min), 10% PEG-400, 15.08 mg/mL, Hudson MicroMist
[7] = Covaris, 0.1% Tween 80, 15.04 mg/mL, Aeroneb Solo
[8] = Sonicator and Ball Mill (60 min), 10% Ethanol, 15.00 mg/mL, Hudson MicroMist
[9] = mouse lung, Nebulizer (ultrasonic eRapid, Altera), 5 daily doses on Days 1-5

Total Aerosol Conc. ([2]; Covaris and Ball Mill (10 min), 0.1% Tween 80, 15.58 mg/mL, Pari LC Plus): 0.123 mg/L
BC-2059 Aerosol Conc. [2, 4]: 66 µg/L
Total Aerosol Conc. [2, 4]: 0.229 mg/L
BC-2059 Aerosol Conc. [2, 5]: 86 µg/L
Total Aerosol Conc. [2, 5]: 0.093 mg/L
BC-2059 Aerosol Conc. [2, 6]: 7.2 µg/L
Total Aerosol Conc. [2, 6]: 2.58 mg/L
BC-2059 Aerosol Conc. [2, 7]: 1.3 µg/L
Total Aerosol Conc. [2, 7]: 0.247 mg/L
BC-2059 Aerosol Conc. [2, 8]: 20.2 µg/L
Total Aerosol Conc. [2, 8]: 0.027 mg/L
concentration at 5 day ([3]; Nebulizer (ultrasonic eRapid, Altera), 5 daily doses on Days 1-5, read-out: Lung Concentration (ng/g)): 19100 ng/g
concentration at 5 day ([3]; Nebulizer (ultrasonic eRapid, Altera), 5 daily doses on Days 1-5, read-out: Lung Concentration (ng/mL)): 4770 ng/mL
lung tissue concentration in the previous testing (assayed concentration) ([3]; mouse lung, previous nebulization testing): ~0.02 mg/g
Compound: C[C@@H]1C[C@H](C)CN(S(=O)(=O)c2ccc3c(c2)C(=NO)c2cc(S(=O)(=O)N4C[C@H](C)C[C@H](C)C4)ccc2C3=NO)C1 [BC2059, tegavivint]
effect on total lung collagen content after bleomycin injury ([1]; Group 3, inhaled): reversed this change
Hydroxyproline ([1]; Group 3: IT bleomycin Day 0, 5 ml of 25 mg/ml tegavivint aerosol BID Day 5-21, Day 21, individual animals): 70.016 μg/half lung and 39.44 μg/half lung and 45.68 μg/half lung and 58.784 μg/half lung and 64.296 μg/half lung
Lung Concentration (ng/g) [3, 9]: 17200 ng/g and 18800 ng/g and 12200 ng/g and 22900 ng/g
Lung Concentration (ng/mL) [3, 9]: 4290 ng/mL and 4690 ng/mL and 3040 ng/mL and 5730 ng/mL
